Consider 14 molecules from patent US12448399B2, “Cereblon-based KRAS degrading PROTACs and uses related thereto” (Arvinas Operations, Inc., priority 2023, dated 2025).

Molecules are shown by their SMILES.

The assay has as its target T1, KRas-G12D (Homo sapiens, UniProt P01116, G12D).
T1 construct: insert the HiBiT tag onto the N-terminus of one or more of the endogenous KRas alleles; host or cells: AsPC-1 HiBiT-KRasG12D knock-in clone (one tagged allele, two untagged KRasG12D alleles)
The assay is described as follows: HiBiT Degradation Assay (G12D), AsPC-1 HiBiT-KRasG12D cells, 24 hr. The format is cell-based. As to conditions: for Dmax: ASPC1, AsPC-1 cells, maximum degradation observed; for DC50: AsPC-1 cells. The protocol:
AsPC-1 (CRL-1682) cells were purchased from ATCC and are homozygous for the G12D mutation in KRas. AsPC-1 cells were cultured in GIBCO RPMI-1640 (ThermoFisher Scientific, catalog #61870-036, with Glutamax, no HEPES, no Na Pyruvate) supplemented with 10% FBS (ThermoFisher Scientific, catalog #2060357) and 1× Penicillin-Streptomycin (ThermoFisher Scientific, catalog #15140122, 10000 U/ml, 100×). For degradation assays, 384 well plates were used. Alamar blue was purchased from ThermoFisher Scientific (A50101) and used according to manufacturer instructions. The Nano-Glo® HiBiT Lytic Detection System and Nano-Glo® HiBiT Blotting System were purchased from Promega (#N3050 and #N2410) and used according to manufacturer instructions.
To create the AsPC-1 HiBiT-KRasG12D cell line, CRISPR-Cas9 was used to insert the HiBiT tag onto the N-terminus of one or more of the endogenous KRas alleles. See Schwinn, M. K. et al. (2018) CRISPR-mediated tagging of endogenous proteins with a luminescent peptide, ACS Chem. Biol. 13(2), 467-474. After knock-in of the tag, individual clones were isolated by single cell dilution and screened for HiBiT insertion by PCR. A clone was identified that contained the desired HiBiT-KRasG12D sequence at one allele while the remaining two KRasG12D alleles were untagged. This clone was used in further studies.
AsPC-1 HiBiT-KRasG12D cells were plated at 9000 or 15,000 cells/well in a 384 well plate (Corning #3770). Compounds of the present disclosure and positive controls were diluted in the appropriate cell media and applied to the plated cells resulting in a final concentration titration of 10 μM to […] in 0.5% DMSO. Gambogic acid was used as a positive control for cytotoxicity and titrated from 10 μM to 78 nM. All assays were performed in triplicate. Cells were treated with compounds for 24 hr at 37° C. in an incubator containing 5% CO2. Following treatment, alamar blue was used to determine if any compounds led to a loss in cell viability after 24 hr. The 10× alamar blue reagent was added to a final concentration of 1× as recommended by the manufacturer and cells were returned to the incubator for 4 hr. Plates were then allowed to equilibrate to RT and fluorescence was measured using a Perkin-Elmer EnVision. After completion of the fluorescence read, the liquid from each well was removed and the cells were washed with PBS. The Nano-Glo® HiBiT detection reagent was prepared according to the manufacturer's instructions and added to each well after the PBS wash was removed. Following incubation at room temperature for 45 min, the luminescence was read using the ultra-sensitive luminescence aperture on the Envision instrument.
Fluorescence values from the alamar blue treatment were normalized to the DMSO-only control for each compound titration. HiBiT luminescence was normalized to the DMSO-only control and the fractional HiBiT signal was plotted versus the log of the PROTAC concentration and fit to a 4-parameter dose-response model to obtain the concentration of the compound that leads to half maximal degradation (DC50) as well as the maximum degradation observed (Dmax, conventionally expressed as a percentage of control).
(In general: The HiBiT peptide binds its large partner to form an active luciferase.)

T1 sequence (P01116 1-188 isoform P01116-2 G12D): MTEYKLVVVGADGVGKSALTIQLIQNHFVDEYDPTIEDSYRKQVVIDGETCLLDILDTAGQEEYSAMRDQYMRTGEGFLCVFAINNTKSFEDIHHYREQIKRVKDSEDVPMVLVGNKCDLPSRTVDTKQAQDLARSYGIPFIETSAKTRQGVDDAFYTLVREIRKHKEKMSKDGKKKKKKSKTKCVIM

As for `C#Cc1c(F)ccc2cc(O)cc(-c3ncc4c(N5CC6CCC(C5)N6)nc(OCCN5CCC6(CC5)CCN(CC5CCN(c7cc(C)c8c(c7F)CN(C7CCC(=O)NC7=O)C8=O)CC5)CC6)nc4c3F)c12` (stereo not shown) [Compound 153, 3-(5-{4-[(9-{2-[(4-{3,8-diazabicyclo[3.2.1]octan-3-yl}-7-(8-ethynyl-7-fluoro-3-hydroxynaphthalen-1-yl)-8-fluoropyrido[4,3-d]pyrimidin-2-yl)oxy]ethyl}-3,9-diazaspiro[5.5]undecan-3-yl)methyl]piperidin-1-yl}-4-fluoro-7-methyl-1-oxo-2,3-dihydro-1H-isoindol-2-yl)piperidine-2,6-dione], the maximal degradation (Dmax) (commonly the largest share of the target that was removed) was > 70% and the DC50 (as a rule, the concentration giving 50% degradation) is < 5.1 µM.
`C#Cc1c(F)ccc2cc(O)cc(-c3ncc4c(C5CC6CCC(C5)N6)nc(OCCN5CCC(CC6CCN(CC7CCN(c8ccc9c(c8)CN(C8CCC(=O)NC8=O)C9=O)CC7)CC6)CC5)nc4c3F)c12` (stereo not shown) [Compound 68]: the Dmax was > 70% and the DC50 was < 5.1 µM.
Regarding `C#Cc1c(F)ccc2cc(O)cc(-c3ncc4c(N5CC6CCC(C5)N6)nc(OCCN5CCC(CC6CCN(c7cccc8c7CN(C7CCC(=O)NC7=O)C8=O)CC6)CC5)nc4c3F)c12` (stereo not shown) [Compound 35, 3-[4-[4-[[1-[2-[4-(3,8-diazabicyclo[3.2.1]octan-3-yl)-7-(8-ethynyl-7-fluoro-3-hydroxy-1-naphthyl)-8-fluoro-pyrido[4,3-d]pyrimidin-2-yl]oxyethyl]-4-piperidyl]methyl]-1-piperidyl]-1-oxo-isoindolin-2-yl]piperidine-2,6-dione], the maximal degradation (Dmax) was > 70% and the half-maximal degradation concentration (DC50) lay within 0.1 to 5.25 µM.
With `C#Cc1c(F)ccc2cc(O)cc(-c3ncc4c(N5CC6CCC(C5)N6)nc(OCCN5CCC(CC6CCN(CC7CCN(c8cc(F)c9c(c8F)n(C)c(=O)n9C8CCC(=O)NC8=O)CC7)CC6)CC5)nc4c3F)c12` (stereo not shown) [Compound 199, 3-{5-[4-({4-[(1-{2-[(4-{3,8-diazabicyclo[3.2.1]octan-3-yl}-7-(8-ethynyl-7-fluoro-3-hydroxynaphthalen-1-yl)-8-fluoropyrido[4,3-d]pyrimidin-2-yl)oxy]ethyl}piperidin-4-yl)methyl]piperidin-1-yl}methyl)piperidin-1-yl]-4,7-difluoro-3-methyl-2-oxo-2,3-dihydro-1H-1,3-benzodiazol-1-yl}piperidine-2,6-dione], the Dmax was > 70% and the 50% degradation concentration (DC50) was < 5.1 µM.
Consider `CCc1c(F)ccc2cc(O)cc(-c3ncc4c(N5CC6CCC(C5)N6)nc(OCCN5CCC(CC6CCN(CC7CCN(c8cccc9c8n(C)c(=O)n9C8CCC(=O)NC8=O)CC7)CC6)CC5)nc4c3F)c12` (stereo not shown) [Compound 172, 3-{4-[4-({4-[(1-{2-[(4-{3,8-diazabicyclo[3.2.1]octan-3-yl}-7-(8-ethyl-7-fluoro-3-hydroxynaphthalen-1-yl)-8-fluoropyrido[4,3-d]pyrimidin-2-yl)oxy]ethyl}piperidin-4-yl)methyl]piperidin-1-yl}methyl)piperidin-1-yl]-3-methyl-2-oxo-2,3-dihydro-1H-1,3-benzodiazol-1-yl}piperidine-2,6-dione], for which the Dmax is > 70% and the DC50 is < 5.1 µM.
As to `C#Cc1c(F)ccc2cc(O)cc(-c3ncc4c(N5CC6CCC(C5)N6)nc(OCCN5CCC(CCC6CCN(c7cccc8c7CN(C7CCC(=O)NC7=O)C8=O)CC6)CC5)nc4c3F)c12` (stereo not shown) [Compound 128, 3-(4-{4-[2-(1-{2-[(4-{3,8-diazabicyclo[3.2.1]octan-3-yl}-7-(8-ethynyl-7-fluoro-3-hydroxynaphthalen-1-yl)-8-fluoropyrido[4,3-d]pyrimidin-2-yl)oxy]ethyl}piperidin-4-yl)ethyl]piperidin-1-yl}-1-oxo-2,3-dihydro-1H-isoindol-2-yl)piperidine-2,6-dione], the Dmax is > 70% and the half-maximal degradation concentration (DC50) is 0.1 to 5.25 µM.
As to `C#Cc1c(F)ccc2cc(O)cc(-c3ncc4c(N5CC6CCC(C5)N6)nc(OCCN5CCC(CC6CCN(CC7CCN(c8cc(C)c9c(c8F)CN(C8CCC(=O)NC8=O)C9=O)CC7)CC6)CC5)nc4c3F)c12` (stereo not shown) [Compound 149, 3-{5-[4-({4-[(1-{2-[(4-{3,8-diazabicyclo[3.2.1]octan-3-yl}-7-(8-ethynyl-7-fluoro-3-hydroxynaphthalen-1-yl)-8-fluoropyrido[4,3-d]pyrimidin-2-yl)oxy]ethyl}piperidin-4-yl)methyl]piperidin-1-yl}methyl)piperidin-1-yl]-4-fluoro-7-methyl-1-oxo-2,3-dihydro-1H-isoindol-2-yl}piperidine-2,6-dione], the greatest degradation seen (Dmax) was > 70% and the 50% degradation concentration (DC50) was < 5.1 µM.
`CCc1cccc2cc(O)cc(-c3ncc4c(N5CC6CCC(C5)N6)nc(OC[C@]56CCCN5[C@@H](COC(=O)N5CCN(c7cccc8c7C(=O)N(C7CCC(=O)NC7=O)C8=O)CC5)CC6)nc4c3F)c12` (stereo partly drawn) [Compound 65, [(3R,8R)-8-[[4-(3,8-diazabicyclo[3.2.1]octan-3-yl)-7-(8-ethyl-3-hydroxy-1-naphthyl)-8-fluoro-pyrido[4,3-d]pyrimidin-2-yl]oxymethyl]-1,2,3,5,6,7-hexahydropyrrolizin-3-yl]methyl 4-[2-(2,6-dioxo-3-piperidyl)-1,3-dioxo-isoindolin-4-yl]piperazine-1-carboxylate]: the DC50 is 0.25 to 1 µM.
The same measure, in the same setting: for `CCc1cccc2cc(O)cc(-c3ncc4c(N5CC6CCC(C5)N6)nc(OCCN5CCC(c6ccc7c(c6)C(=O)N(C6CCC(=O)NC6=O)C7=O)CC5)nc4c3F)c12` (stereo not shown) [Compound 34] the value was 0.25 to 1 µM; for `CCc1cccc2cc(O)cc(-c3nc(N4CC5CCC(C4)N5)c4cnc(OCCN5CCC(CC6CCN(c7cccc8c7CN(C7(C)CCC(=O)NC7=O)C8=O)CC6)CC5)nc4c3F)c12` (stereo not shown) [Compound 30], > 1 µM.
Take `CCc1cccc2cc(O)cc(-c3ncc4c(N5CC6CCC(C5)N6)nc(OCCN5CCC6(CC5)CCN(c5ccc7c(c5)C(=O)N(C5CCC(=O)NC5=O)C7=O)CC6)nc4c3F)c12` (stereo not shown) [Compound 19]: the half-maximal degradation concentration (DC50) was 0.25 to 1 µM.
Molecule `CCc1cccc2cc(O)cc(-c3ncc4c(N5CC6CCC(C5)N6)nc(OCCN5CCC(CC6CCN(c7cccc8c7n(C)c(=O)n8C7CCC(=O)NC7=O)CC6)CC5)nc4c3F)c12` (stereo not shown) [Compound 28, 3-[4-[4-[[1-[2-[4-(3,8-diazabicyclo[3.2.1]octan-3-yl)-7-(8-ethyl-3-hydroxy-1-naphthyl)-8-fluoro-pyrido[4,3-d]pyrimidin-2-yl]oxyethyl]-4-piperidyl]methyl]-1-piperidyl]-3-methyl-2-oxo-benzimidazol-1-yl]piperidine-2,6-dione] displayed a DC50 of 0.25 to 1 µM.
`C#Cc1c(F)ccc2cc(O)cc(-c3ncc4c(N5CC6CCC(C5)N6)nc(OC[C@]56CCCN5[C@H](CN5CCN(CC7CCN(c8ccc9c(c8)n(C)c(=O)n9C8CCC(=O)NC8=O)CC7)CC5)CC6)nc4c3F)c12` (stereo partly drawn) [Compound 204, 3-[5-[4-[[4-[[(3S,8R)-8-[[4-(3,8-diazabicyclo[3.2.1]octan-3-yl)-7-(8-ethynyl-7-fluoro-3-hydroxy-1-naphthyl)-8-fluoro-pyrido[4,3-d]pyrimidin-2-yl]oxymethyl]-1,2,3,5,6,7-hexahydropyrrolizin-3-yl]methyl]piperazin-1-yl]methyl]-1-piperidyl]-3-methyl-2-oxo-benzimidazol-1-yl]piperidine-2,6-dione]: the maximal degradation (Dmax) was > 70% and the DC50 is < 5.1 µM.
Regarding `CCc1cccc2cc(O)cc(-c3ncc4c(N5CC6CCC(C5)N6)nc(OCCN5CCN([C@H]6CC[C@H](Nc7ccc8c(c7)C(=O)N(C7CCC(=O)NC7=O)C8=O)CC6)CC5)nc4c3F)c12` (stereo partly shown) [Compound 33], the half-maximal degradation concentration (DC50) was in the range of 0.25 to 1 µM.
